According to PubChem BioAssay (NCI):
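Where inhibition never reached the appropriate level, the endpoint shown equals the highest concentration tested. Otherwise, values were interpolated linearly from a five-concentration, 48-hour dose response in 96-well plates. GI50 marks 50% less growth. The concentration for full growth arrest is given as TGI.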

Legend:
Assay in all cases: NCI tumour cell line growth inhibition, 48 h
HCT-116 colon = test system: HCT-116 colon
HCC-2998 colon = test system: HCC-2998 colon
KM12 colon = test system: KM12 colon
HL-60(TB) leukemia = test system: HL-60(TB) leukemia
SK-MEL-5 melanoma = test system: SK-MEL-5 melanoma
NCI-H460 lung = test system: NCI-H460 lung
SW-620 colon = test system: SW-620 colon
OVCAR-4 ovarian = test system: OVCAR-4 ovarian
UO-31 renal = test system: UO-31 renal
T-47D breast = test system: T-47D breast
BT-549 breast = test system: BT-549 breast

| Compound | TGI (HCT-116 colon) | TGI (HCC-2998 colon) | TGI (KM12 colon) | TGI (HL-60(TB) leukemia) | TGI (SK-MEL-5 melanoma) | TGI (NCI-H460 lung) | TGI (SW-620 colon) | TGI (OVCAR-4 ovarian) | TGI (UO-31 renal) | TGI (T-47D breast) | TGI (BT-549 breast) | GI50 (HCT-116 colon) | GI50 (HL-60(TB) leukemia) | GI50 (SW-620 colon) | GI50 (OVCAR-4 ovarian) |
| --- | --- | --- | --- | --- | --- | --- | --- | --- | --- | --- | --- | --- | --- | --- | --- |
| O=C1/C(=C/c2cccc([N+](=O)[O-])c2)COc2ccccc21 | 3.16 µM | > 23.4 µM | 6.29 µM | 5.59 µM | 4.99 µM | > 25.2 µM | 2.09 µM | 6.28 µM | 67.8 µM | – | – | – | – | – | – |
| C/C(C=O)=N\Nc1cc(C)c2ccccc2n1 | 27.6 µM | 29.3 µM | 28.5 µM | – | 29.9 µM | – | 72.8 µM | 27.8 µM | 28.1 µM | 39.9 µM | 26.6 µM | – | – | – | – |
| NC(=S)N/N=C/c1cc(CN2CCOCC2)c(N)cn1 | > 100 µM | – | > 100 µM | > 100 µM | > 100 µM | > 100 µM | > 100 µM | – | > 100 µM | > 100 µM | > 100 µM | – | – | – | – |
| CCN(CC)CCCCC1CCN(CC(=O)N2c3ccccc3NC(=O)c3ccccc32)CC1 | > 100 µM | > 100 µM | > 100 µM | > 100 µM | > 100 µM | – | > 100 µM | > 100 µM | > 100 µM | – | – | – | – | – | – |
| CCc1cc(Cc2cc(CC)c(NC(=O)C3=CC(=O)CC(c4ccc(OC)cc4)O3)c(CC)c2Cl)c(Cl)c(CC)c1NC(=O)C1=CC(=O)CC(c2ccc(OC)cc2)O1 (stereo not drawn) | 31.6 µM | 30.4 µM | 26.9 µM | 68.1 µM | 36.4 µM | 32.6 µM | 20.9 µM | 54.8 µM | 30.8 µM | – | – | – | – | – | – |
| COc1ccc2c(c1)c(Cc1c(C)n(C)c3ccc(OC)cc13)c(C)n2C | > 100 µM | – | > 100 µM | > 100 µM | > 100 µM | > 100 µM | > 100 µM | > 100 µM | > 100 µM | – | – | – | – | – | – |
| O=C(O)Cc1cc(=O)oc2cc(O)c(Cl)cc12 | > 100 µM | > 100 µM | > 100 µM | > 100 µM | > 100 µM | > 100 µM | > 100 µM | > 100 µM | – | – | – | – | – | – | – |
| CC(=O)c1c2c(cc3c1CC1(Cc4cc5c(cc4C1)CCC5)C3)CCC2 | > 100 µM | > 100 µM | – | > 100 µM | > 100 µM | > 100 µM | > 100 µM | > 100 µM | > 100 µM | > 100 µM | – | – | – | – | – |
| CC(=NNC(=S)Nc1ccccc1C)c1cccc(C(C)=NNC(=S)Nc2ccccc2C)n1 | > 100 µM | > 100 µM | > 100 µM | > 100 µM | > 100 µM | > 100 µM | > 100 µM | 91.7 µM | > 100 µM | > 100 µM | – | – | – | – | – |
| CC1CN=C(NCc2ccccc2)S1 (stereo not drawn) | > 100 µM | > 100 µM | > 100 µM | > 100 µM | – | > 100 µM | – | – | > 100 µM | > 100 µM | > 100 µM | – | – | – | – |
| COc1cc(/C=C2\CCCC3=C2NC(N)=NC3c2cc(OC)c(OC)c(OC)c2)cc(OC)c1OC (stereo not drawn) | 1.97 µM | – | – | > 100 µM | – | – | 3.51 µM | > 100 µM | – | – | – | 0.551 µM | 2.6 µM | 1.08 µM | 1.7 µM |
| CN(C(=O)C1=CCCCCC1)c1ccccc1I | > 100 µM | > 100 µM | 93.9 µM | > 100 µM | > 100 µM | > 100 µM | > 100 µM | 86.9 µM | > 100 µM | > 100 µM | – | – | – | – | – |
| CCCCCCCCCCCCCCCC(=O)NC1CCc2cc(O)c(O)c(O)c2-c2ccc(SC)c(=O)cc21 (stereo not drawn) | 17.2 µM | 20.9 µM | 20.3 µM | > 36.7 µM | 16 µM | 19.6 µM | 19 µM | 28.9 µM | 22.6 µM | – | – | – | – | – | – |
| c1ccc(C2=NN(c3ccccc3)C3(S2)SC(c2ccccc2)(c2ccccc2)c2ccccc23)cc1 (stereo not drawn) | > 100 µM | > 100 µM | > 100 µM | > 100 µM | > 100 µM | > 100 µM | > 100 µM | > 100 µM | > 100 µM | – | – | – | – | – | – |
| COc1ccc(CCN2CCC(C#N)(c3ccc(OC)c(OC)c3)CC2)cc1OC | > 100 µM | > 100 µM | > 100 µM | > 100 µM | > 100 µM | > 100 µM | > 100 µM | > 100 µM | > 100 µM | – | – | – | – | – | – |
| CCOC(=O)CCc1c(C(=O)OCC)[nH]c(/C=C2/NC(=O)C(C)=C2CC)c1C | 28.1 µM | – | 23.9 µM | 25.7 µM | 13.2 µM | > 100 µM | > 100 µM | 8.91 µM | 10.5 µM | 9.59 µM | 6.19 µM | – | – | – | – |
| O=c1nc2n(CCO)c(-c3ccccc3)c(-c3ccccc3)nc-2c(=O)[nH]1 | > 100 µM | > 100 µM | > 100 µM | – | > 100 µM | > 100 µM | > 100 µM | > 100 µM | > 100 µM | > 100 µM | > 100 µM | – | – | – | – |
| COc1c(O)cc(/C=C/c2cc(O)cc3c2[C@@]2(C(=O)O3)c3c(O)cc(O)cc3OC2c2cccc(O)c2)cc1O (stereo partly drawn) | > 100 µM | – | > 100 µM | 69.1 µM | 72.1 µM | 31.9 µM | > 100 µM | 91 µM | > 100 µM | > 100 µM | > 100 µM | – | – | – | – |
| COc1ccc2c(OC)c3ccoc3nc2c1O | > 100 µM | > 100 µM | > 100 µM | – | > 100 µM | > 100 µM | > 100 µM | > 100 µM | > 100 µM | – | – | – | – | – | – |
| CC(=O)OC1[C@H]2c3cc4c(cc3CN3CCC(C[C@@H]1OC(C)=O)C23)OCO4 (stereo partly drawn) | > 75 µM | > 75 µM | > 75 µM | > 75 µM | – | > 75 µM | > 75 µM | – | > 75 µM | – | – | – | – | – | – |
| COc1cc(C2c3cccc4cccc(c34)C3CCC(=O)N32)cc(O)c1O (stereo not drawn) | > 50 µM | – | > 50 µM | > 50 µM | – | > 50 µM | > 50 µM | 45 µM | > 50 µM | > 50 µM | > 50 µM | – | – | – | – |
| COC(=O)c1c/c(=N\NC(=O)CC(=O)Nc2ccccc2Cl)c2ccccc2o1 | > 100 µM | > 100 µM | > 100 µM | > 100 µM | > 100 µM | > 100 µM | > 100 µM | > 100 µM | > 100 µM | – | – | – | – | – | – |
| Oc1cn(-c2ccc(Cl)cc2)nc1-c1nnc(Nc2ccccc2)o1 | 29.6 µM | – | 37.2 µM | – | 23.6 µM | 39.6 µM | 41 µM | > 100 µM | 46.1 µM | 50.3 µM | – | – | – | – | – |
